US6878722B2, “Substituted cycloalkyl P1′ hepatitis C virus inhibitors” (Bristol-Myers Squibb Company, priority 2002, dated 2005)

Tests used:
[1] = molecular target: T1, HCV NS3/4A protease complex (BMS strain, genotype 1a) (Hepatitis C virus genotype 1a, UniProt P27958, C1454S); test: Recombinant HCV NS3/4A protease complex FRET peptide assay, BMS strain; format: biochemical; conditions: IC50 range, NS3/4A BMS Strain
T1 construct: DNA encoding the recombinant HCV NS3/4A protease complex (amino acids 1027 to 1711) for these strains; inferred from the pET21b vector and Ni-NTA purification; made in house; host or cells: Escherichia coli BL21 (DE3), pET21b
Text: The purpose of this in vitro assay was to measure the inhibition of HCV NS3 protease complexes, derived from the BMS, H77C or J416S strains, as described below, by compounds of the present invention.
Serum from an HCV-infected patient was obtained from Dr. T. Wright, San Francisco Hospital. An engineered full-length cDNA (compliment deoxyribonucleic acid) template of the HCV genome (BMS strain) was constructed from DNA fragments obtained by reverse transcription-PCR (RT-PCR) of serum RNA (ribonucleic acid) and using primers selected on the basis of homology between other genotype 1a strains. […] The infectious clones, H77C (1a genotype) and J4L6S (1b genotype) were obtained from R. Purcell (NIH) and the sequences are published in Genbank (AAB67036, see Yanagi,M., Purcell,R. H., Emerson,S. U. and Bukh,J. Proc. Natl. Acad. Sci. U.S.A. 94(16),8738-8743 (1997); AF054247, see Yanagi,M., St Claire,M., Shapiro,M., Emerson,S. U., Purcell,R. H. and Bukh,J, Virology 244 (1), 161-172. (1998)).
The BMS, H77C and J4L6S strains were used for production of recombinant NS3/4A protease complexes. DNA encoding the recombinant HCV NS3/4A protease complex (amino acids 1027 to 1711) for these strains were manipulated as described by P. Gallinari et al. (see Gallinari P, Paolini C, Brennan D, Nardi C, Steinkuhler C, De Francesco R. Biochemistry. 38(17):5620-32, (1999)). Briefly, a three-lysine solubilizing tail was added at the 3′-end of the NS4A coding region. The cysteine in the P1 position of the NS4A-NS4B cleavage site (amino acid 1711) was changed to a glycine to avoid the proteolytic cleavage of the lysine tag. Furthermore, a cysteine to serine mutation was introduced by PCR at amino acid position 1454 to prevent the autolytic cleavage in the NS3 helicase domain. The variant DNA fragment was cloned in the pET21b bacterial expression vector (Novagen) and the NS3/4A complex was expressed in Escherichia. coli strain BL21 (DE3) (Invitrogen) following the protocol described by P. Gallinari et al. (see Gallinari P, Brennan D, Nardi C, Brunetti M, Tomei L, Steinkuhler C, De Francesco R., J. Virol. 72(8):6758-69 (1998)) with modifications. Briefly, NS3/4A expression was induced with 0.5 mM Isopropyl β-D-1-thiogalactopyranoside (IPTG) for 22 hr at 20° C. […] The cells were resuspended in lysis buffer (10 mL/g) consisting of 25 mM N-(2-Hydroxyethyl)Piperazine-N′-(2-Ethane Sulfonic acid) (HEPES), pH 7.5, 20% glycerol, 500 mM Sodium Chloride (NaCl), 0.5% Triton-X100, 1 ug/ml lysozyme, 5 mM Magnesium Chloride (MgCl2), 1 ug/ml DnaseI, 5 mM β-Mercaptoethanol (βME), Protease inhibitor—Ethylenediamine Tetraacetic acid (EDTA) free (Roche), homogenized and incubated for 20 mins at 4° C. The homogenate was sonicated and clarified by ultra-centrifugation at 235000 g for 1 hr at 4° C. Imidazole was added to the supernatant to a final concentration of 15 mM and the pH adjusted to 8.0. The crude protein extract was loaded on a Nickel-Nitrilotriacetic acid (Ni-NTA) column pre-equilibrated with buffer B (25 mM HEPES, pH 8.0, 20% glycerol, 500 mM NaCl, 0.5% Triton-X100, 15 mM imidazole, 5 mM βME). The sample was loaded at a flow rate of 1 mL/min. The column was washed with 15 column volumes of buffer C (same as buffer B except with 0.2% Triton-X100). The protein was eluted with 5 column volumes of buffer D (same as buffer C except with 200 mM Imidazole).
NS3/4A protease complex-containing fractions were pooled and loaded on a desalting column Superdex-S200 pre-equilibrated with buffer D (25 mM HEPES, pH7.5, 20% glycerol, 300 mM NaCl, 0.2% Triton-X100, 10 mM βME).

[2] = tested on: HCV replicon in Huh7 cells; test: HCV replicon cell-based assay (FRET); conditions: Hepatitis C virus, Huh-7; HCV replicon; read-out: EC50 range
Text: An HCV replicon whole cell system was established as described by Lohmann V, Korner F, Koch J, Herian U, Theilmann L, Bartenschlager R., Science 285(5424):110-3 (1999). This system enabled us to evaluate the effects of our HCV Protease compounds on HCV RNA replication. Briefly, using the HCV strain 1B sequence described in the Lohmann paper (Assession number: AJ238799), an HCV cDNA was generated encoding the 5′ internal ribosome entry site (IRES), the neomycin resistance gene, the EMCV (encephalomyocarditis viurs)-IRES and the HCV nonstructural proteins, NS3-NS5B, and 3′ non-translated region (NTR). In vitro transcripts of the cDNA were transfected into the human hepatoma cell line, Huh7. […] Resulting cell lines were characterized for positive and negative strand RNA production and protein production over time.
Huh7 cells, constitutively expressing the HCV replicon, were grown in Dulbecco's Modified Eagle Media (DMEM) containing 10% Fetal calf serum (FCS) and 1 mg/ml G418 (Gibco-BRL). Cells were seeded the night before (1.5×10^4 cells/well) in 96-well tissue-culture sterile plates. Compound and no compound controls were prepared in DMEM containing 4% FCS, 1:100 Penicillin/Streptomysin, 1:100 L-glutamine and 5% DMSO in the dilution plate (0.5% DMSO final concentration in the assay). Compound/DMSO mixes were added to the cells and incubated for 4 days at 37° C. After 4 days, plates were rinsed thoroughly with Phosphate-Buffered Saline (PBS) (3 times 150 μl). The cells were lysed with 25 μl of a lysis assay reagent containing the FRET peptide (RET S1, as described for the in vitro enzyme assay). The lysis assay reagent was made from 5× cell Luciferase cell culture lysis reagent(Promega #E153A) diluted to 1× with distilled water, NaCl added to 150 mM final, the FRET peptide diluted to 10 μM final from a 2 mM stock in 100% DMSO. The plate was then placed into the Cytofluor 4000 instrument which had been set to 340 nm excitation/490 emission, automatic mode for 21 cycles and the plate read in a kinetic mode. EC50 determinations were carried out as described for the IC50 determinations.

T1 sequence (P27958 1658-1714, looked up, stated change not applied): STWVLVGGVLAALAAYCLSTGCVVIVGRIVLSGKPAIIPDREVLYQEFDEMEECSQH
T1 sequence (P27958 1027-1657, looked up, stated change not applied): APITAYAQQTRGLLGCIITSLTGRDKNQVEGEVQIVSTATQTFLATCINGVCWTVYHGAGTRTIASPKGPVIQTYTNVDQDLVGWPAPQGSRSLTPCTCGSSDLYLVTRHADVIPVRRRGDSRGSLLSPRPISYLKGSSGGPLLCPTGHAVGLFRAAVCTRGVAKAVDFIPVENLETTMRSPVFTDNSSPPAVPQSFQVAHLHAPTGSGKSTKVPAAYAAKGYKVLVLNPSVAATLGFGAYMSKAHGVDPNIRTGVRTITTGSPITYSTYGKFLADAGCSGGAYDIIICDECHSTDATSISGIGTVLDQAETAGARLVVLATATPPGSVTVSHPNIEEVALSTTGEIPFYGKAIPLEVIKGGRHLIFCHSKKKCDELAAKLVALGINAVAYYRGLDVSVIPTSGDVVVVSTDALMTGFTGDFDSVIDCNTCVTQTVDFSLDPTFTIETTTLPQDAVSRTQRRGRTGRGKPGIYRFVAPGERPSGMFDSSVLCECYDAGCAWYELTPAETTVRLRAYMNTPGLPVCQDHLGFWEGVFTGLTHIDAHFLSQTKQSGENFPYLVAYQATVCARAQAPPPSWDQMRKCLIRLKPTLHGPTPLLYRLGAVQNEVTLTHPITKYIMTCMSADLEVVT

Structure (SMILES)	IC50 [1] [nM]	EC50 [2] [nM]
C=CC1C[C@]1(NC(=O)[C@@H]1C[C@@H](Oc2cc(-c3ccccc3)nc3cc(OC)ccc23)CN1C(=O)[C@@H](NC(=O)OC1CCCC1)C(C)(C)C)C(=O)NS(=O)(=O)C1(C)CC1 (stereo in doubt) [Compound 12, (1-{4-(7-Methoxy-2-phenyl-quinolin-4-yloxy)-2-[1-(1-methylcyclopropanesulfonyl-aminocarbonyl)-2-vinyl-cyclopropylcarbamoyl]-pyrrolidine-1-carbonyl}-2,2-dimethylpropyl)carbamic acid cyclopentyl ester]	< 50	< 50
C=CC1C[C@]1(NC(=O)[C@@H]1C[C@@H](Oc2cc(-c3ccccc3)nc3cc(OC)ccc23)CN1C(=O)[C@@H](NC(=O)CC1CC1)C(C)(C)C)C(=O)NS(=O)(=O)C1(C)CC1 (stereo in doubt) [Compound 13, 1-[2-(2-Cyclopropyl-acetylamino)-3,3-dimethyl-butyryl]-4-(7-methoxy-2-phenylquinolin-4-yloxy)-pyrrolidine-2-carboxylic acid [1-(1-methylcyclopropanesulfonylaminocarbonyl)-2-vinylcyclopropyl]amide]	< 50	< 50
C=CCC1(S(=O)(=O)NC(=O)[C@@]2(NC(=O)[C@@H]3C[C@@H](Oc4cc(-c5ccccc5)nc5cc(OC)ccc45)CN3C(=O)[C@@H](NC(=O)OC(C)(C)C)C(C)(C)C)CC2C=C)CC1 (some centres unmarked) [Compound 2, {1-[2-[1-(1-Allylcyclopropanesul-fonylaminocarbonyl)-2-vinylcyclopropylcarbamoyl]-4-(7-methoxy-2-phenylquinolin-4-yloxy)-pyrrolidine-1-carbonyl]-2,2-dimethylpropyl}carbamic acid tert-butyl ester]	< 50	< 50
C=CC1C[C@]1(NC(=O)[C@@H]1C[C@@H](Oc2cc(-c3ccccc3)nc3cc(OC)ccc23)CN1C(=O)[C@@H](NC(=O)OC(C)(C)C)C(C)(C)C)C(=O)NS(=O)(=O)C1(COC)CC1 (some centres unmarked) [Compound 7, {1-[2-[1-(1-Methoxymethylcyclopropanesulfonylaminocarbonyl)-2-vinylcyclopropylcarbamoyl]-4-(7-methoxy-2-phenyl-quinolin-4--yloxy)pyrrolidine-1-carbonyl]-2,2-dimeth-ylpropyl}-carbamic acid tert-butyl ester]	< 50	< 50
C=CC1C[C@]1(NC(=O)[C@@H]1C[C@@H](Oc2cc(-c3ccccc3)nc3cc(OC)ccc23)CN1C(=O)[C@@H](NC(=O)OC(C)(C)C)C(C)(C)C)C(=O)NS(=O)(=O)C1(CC2CC2)CC1 (some centres unmarked) [Compound 8, {1-[2-[1-(1-Cyclopropylmethyl-cyclopropanesulfonylaminocarbonyl)-2-vinyl-cyclopropylcarbamoyl]-4-(7-methoxy-2-phenyl-quinolin-4-yloxy)-pyrrolidine-1-carbonyl]-2,2-dime-thylpropyl}-carbamic acid tert-butyl ester]	< 50	< 50
C=CC1C[C@]1(NC(=O)[C@@H]1C[C@@H](Oc2cc(-c3ccccc3)nc3cc(OC)ccc23)CN1C(=O)[C@@H](NC(=O)OC(C)(C)C)C(C)(C)C)C(=O)NS(=O)(=O)C1(C(=O)Nc2c(C)noc2C)CC1 (some centres unmarked) [Compound 10, {1-[2-{1-[1-(3,5-Dimethylisoxazol-4-ylcarbamoyl)cyclopropanesul-fonylaminocarbonyl]-2-vinylcyclopropylcarbamoyl}-4-(7-methoxy-2-phenylquinolin-4-yloxy)pyrrolidine-1-carbon-yl]-2,2-dimethylpropyl}carbamicacid tert-butyl ester]	< 50	< 50
C=CC1C[C@]1(NC(=O)[C@@H]1C[C@@H](Oc2cc(-c3ccccc3)nc3cc(OC)ccc23)CN1C(=O)[C@@H](NC(=O)OC(C)(C)C)C(C)(C)C)C(=O)NS(=O)(=O)C1(Br)CC1 (some centres unmarked) [Compound 11, {1-[2-[1-(1-Bromocyclopropanesulfonylaminocarbonyl)-2-vinylcy-clopropylcarbamoyl]-4-(7-methoxy-2-phenylquinolin-4-yloxy)pyrrolidine-1-carbonyl]-2,2-dimethylpropyl}-carbamic acid tert-butyl ester]	< 50	< 50
C=C[C@@H]1C[C@]1(NC(=O)[C@@H]1C[C@@H](Oc2cc(-c3ccccc3)nc3cc(OC)ccc23)CN1C(=O)[C@@H](NC(=O)OC(C)(C)C)C(C)(C)C)C(=O)NS(=O)(=O)C1([Si](C)(C)C)CC1 [Compound 27]	< 50	< 50
C=C[C@@H]1C[C@]1(NC(=O)[C@@H]1C[C@@H](Oc2cc(-c3ccccc3)nc3cc(OC)ccc23)CN1C(=O)[C@@H](NC(=O)OC(C)(C)C)C(C)(C)C)C(=O)NS(=O)(=O)C1(CC)CC1 [Compound 28]	< 50	< 50
C=C[C@@H]1C[C@]1(NC(=O)[C@@H]1C[C@@H](Oc2cc(-c3ccccc3)nc3cc(OC)ccc23)CN1C(=O)[C@@H](NC(=O)OC(C)(C)C)C(C)(C)C)C(=O)NS(=O)(=O)C1(CCC)CC1 [Compound 29, (1-{4-(7-Methoxy-2-phenyl-quinolin-4-yloxy)-2-[1-(1-propyl-cyclopropanesulfonylaminocarbonyl)-2-vinyl-cyclopropylcarbamoyl]-pyrrolidine-1-carbonyl}-2,2-dimethyl-propyl)-carbamic acid tert-butyl ester]	< 50	< 50
